Assay [1] concerns mouse. The experiment in a line: Porsolt's Forced Swim Test (FST). Format: in vivo. Here is the method:
The Forced Swim Test (FST) was first reported in 1977 for screening of antidepressant-like compounds in rats (Porsolt et al 1977 Nature, 266:730-732) and, later, modified for testing mice (Porsolt et al 1977 Arch. Int. Pharmacodynamie, 229:327-336).
In two separate experiments, mice were tested following either i.p. or p.o. administration of carnosol. Mice were individually placed in a cylinder containing water (22° C.) from which they could not escape. The mice were placed in the water for 6 min and the duration of immobility during the last 4 min was measured. Ten to fifteen mice were studied per group. Carnosol was evaluated at 3, 10, 30 mg/kg body weight (i.p. 30 min before the test) or 200, 400, 600 mg/kg body weight (p.o., 24, 5 and 1 h before the test), and compared with vehicle control groups. Imipramine (32 mg/kg i.p., or p.o., respectively), administered under the same experimental conditions, was used as reference substance. Immobility and swimming time were assessed.

In assay [2] the target is T1, human glycine transporter 1b (GlyT1) (Homo sapiens, UniProt P48067).
T1 construct: expressed in transfected cells; host or cells: CHO
T1 sequence (P48067 1-652 isoform P48067-3): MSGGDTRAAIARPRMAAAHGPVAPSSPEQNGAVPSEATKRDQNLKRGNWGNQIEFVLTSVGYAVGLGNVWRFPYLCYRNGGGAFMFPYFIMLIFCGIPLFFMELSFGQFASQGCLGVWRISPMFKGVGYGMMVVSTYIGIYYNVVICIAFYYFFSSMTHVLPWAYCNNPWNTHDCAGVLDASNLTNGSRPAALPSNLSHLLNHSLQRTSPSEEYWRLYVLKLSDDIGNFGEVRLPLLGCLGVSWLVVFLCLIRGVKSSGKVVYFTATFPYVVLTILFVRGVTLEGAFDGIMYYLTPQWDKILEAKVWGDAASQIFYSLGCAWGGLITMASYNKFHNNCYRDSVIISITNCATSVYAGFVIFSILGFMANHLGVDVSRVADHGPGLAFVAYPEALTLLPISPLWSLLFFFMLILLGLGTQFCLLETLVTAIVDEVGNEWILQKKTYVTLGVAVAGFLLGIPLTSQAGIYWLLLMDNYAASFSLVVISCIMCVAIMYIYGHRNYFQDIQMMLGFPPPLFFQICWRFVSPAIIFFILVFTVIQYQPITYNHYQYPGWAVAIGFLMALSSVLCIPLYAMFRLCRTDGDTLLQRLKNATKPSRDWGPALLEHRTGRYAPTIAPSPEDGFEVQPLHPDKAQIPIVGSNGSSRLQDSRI
The experiment in a line: Glycine uptake inhibition in CHO cells expressing GlyT1. To be noted: 60 nM [3H]-glycine, read-out: IC50 for tritiated glycine uptake. In kind it is cell-based. Here is the method:
CHO cells stably expressing the human glycine transporter 1b cDNA (GlyT1) were routinely grown in Dulbecco's Modified Eagle's Medium (Invitrogen, Carlsbad, USA) containing 10% dialysed foetal calf serum, penicillin, streptomycin, proline and the antibiotic G418. Cells were harvested by trypsinisation one day prior to the assay and were seeded in the above mentioned medium. Immediately prior to the assay, the medium was replaced by uptake buffer containing 150 mM NaCl, 1 mM CaCl2, 2.5 mM KCl, 2.5 mM MgCl2, 10 mM Glucose and 10 mM N-2-hydroxyethylpiperazine-N′-2-ethanesulfonic acid (HEPES buffer).
Glycine uptake into the cells was determined by addition of 60 nM radiolabelled [^3H]-glycine (Amersham Biosciences GE Healthcare, Slough, UK) and incubation for 30 minutes at room temperature. Following removal of unincorporated label by gentle washing three times with the above buffer, incorporated glycine was quantified by liquid scintillation counting.

Assay [3] concerns mouse. The experiment in a line: Four Plates Test. As to conditions: 32 mg/kg p.o. −1 h (vehicle at −24 h and −5 h). Format: in vivo. An excerpt: The method, which detects anxiolytic activity, follows that described by Aron et al (1971, Neuropharmacology, 10:459-469). Anxiolytics (benzodiazepines) increase the number of punished crossings. Animals were placed individually in a white plastic enclosure containing a floor consisting of 4 metal plates connected to an electric shock generator (Apelex: type 011346). Each mouse was left to explore freely for 15 seconds. Then, every time it crossed from one plate to another, it received a weak electric shock (2.5 mA, 1.5 s). The number of punished crossings was counted during a 1 minute test. 15 mice were studied per group. The test was performed blind.
Carnosol was evaluated at 3 doses (200, 400, 600 mg/kg), administered p.o. 24 h, 5 h and 1 h before the test, and compared with a vehicle control (corn oil) group.
Clobazam (32 mg/kg p.o.), administered 1 h before the test, was used as reference substance. Mice in this group received additional administrations of vehicle at 24 h and 5 h before the test in order to maintain experimental blinding.

Assay [4] concerns mouse. The experiment in a line: Marble burying test. In kind it is in vivo. As to conditions: 32 mg/kg i.p., −30 min. Here is the method: The method applied here follows that described by Broekkamp et al. (1986). Mice (n=15 per treatment group) were individually placed in transparent plastic cages (33×21×18 cm) with 5 cm of sawdust on the floor and 25 marbles (diameter 1 cm) grouped in the centre of the cage. A second, up-turned, cage served as a lid. The number of marbles covered by sawdust (by at least two-thirds) was counted at the end of the 30-min test period. Tests were performed by investigators blind to the drug treatment protocol.
Prior to testing, all test cages and marbles were “impregnated” by leaving 10 naive mice in each cage for 15 minutes.
Carnosol (3, 10 and 30 mg/kg) and rosmanol (10, 30 and 100 mg/kg) were administered i.p. 30 min before the test, and compared with a vehicle control group. Fluoxetine (32 mg/kg), administered under the same experimental conditions, was used as a reference substance.

The record followed here is US8227508B2, “Dietary and pharmaceutical compositions containing carnosol and/or rosmanol and their uses” (DSM IP Assets B.V., priority 2006, dated 2012).

A word on the IC50: it is the concentration at which inhibition is half-maximal.

SMILES strings stand for the structures.

Consider `CN(C)CCCN1c2ccccc2CCc2ccccc21` [imipramine, reference compound], for which the “Duration of immobility (% change from control)” value in assay [1] (32 mg/kg i.p., −30 min) is reported as −80%; in assay [1] (32 mg/kg p.o., −24, −5, −1 h), −48%. In the case of `CN(CC[C@@H](Oc1ccc(C(F)(F)F)cc1)c1ccccc1)CC(=O)O` [ORG24598, reference compound], in assay [2], the IC50 is 0.02 µM. For the molecule `CN1C(=O)CC(=O)N(c2ccccc2)c2cc(Cl)ccc21` [Clobazam, reference compound], in assay [3], the “Number of punished crossings, % change from control” value is recorded as “+118%” and the “Number of punished crossings, mean” value was 6.1.

With `CNCCC(Oc1ccc(C(F)(F)F)cc1)c1ccccc1` (stereo not drawn) [Fluoxetine, fluoxetine, reference compound], in assay [4], the “Number of marbles buried (% change from control)” value is −92%.
